# Key:
# [1] = test system: Ba/F3 expressing EGFR Del19/T790M/C797S mutations; experiment: Inhibitory activity on proliferation of Ba/F3 cell overexpressing EGFR C797S (Cell Titer-Glo); format: cell-based; conditions: Mus musculus, BaF3; 72 hours treatment, cell growth rate vs control; read-out: Ba/F3 (EGFR DTC) GI50
# Summary of the method: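 Ba/F3 cells with EGFR Del19/T790M/C797S in RPMI-1640 + 10% FBS were seeded (3000/well) 24 h before 72 h compound exposure at 37 °C. Compounds were tested in a 12-point 3-fold series, final […]–5 μM. CellTiter-Glo luminescence gave growth % versus control, from which GI50 was derived.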
# [2] = target: T1, human EGFR (d746-750/T790M/C797S) (Homo sapiens, UniProt P00533, C797S/DEL746-750/T790M); experiment: EGFR C797S enzyme inhibition activity (ADP-Glo kinase assay); format: biochemical; conditions: purified enzyme 3 ng, ATP 5 μM, 25° C., 1 hour, luminescence; read-out: EGFR DTC Enzyme IC50
# T1 construct: human EGFR (d746-750/T790M/C797S) (668-end, SignalChem); purchased SignalChem
# Summary of the method: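 Kinase construct 668-end (3 ng) was incubated with 5 μM ATP and 0.2 μg substrate in Tris pH 7.4 buffer for 1 h at 25° C. ADP-Glo luminescence was read over 12 final compound concentrations from 10 μM down to 0. IC50 was taken as 50% inhibition relative to the solvent control.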
# T1 sequence (P00533 with tags, fused parts or gaps DEL746-750/T790M/C797S): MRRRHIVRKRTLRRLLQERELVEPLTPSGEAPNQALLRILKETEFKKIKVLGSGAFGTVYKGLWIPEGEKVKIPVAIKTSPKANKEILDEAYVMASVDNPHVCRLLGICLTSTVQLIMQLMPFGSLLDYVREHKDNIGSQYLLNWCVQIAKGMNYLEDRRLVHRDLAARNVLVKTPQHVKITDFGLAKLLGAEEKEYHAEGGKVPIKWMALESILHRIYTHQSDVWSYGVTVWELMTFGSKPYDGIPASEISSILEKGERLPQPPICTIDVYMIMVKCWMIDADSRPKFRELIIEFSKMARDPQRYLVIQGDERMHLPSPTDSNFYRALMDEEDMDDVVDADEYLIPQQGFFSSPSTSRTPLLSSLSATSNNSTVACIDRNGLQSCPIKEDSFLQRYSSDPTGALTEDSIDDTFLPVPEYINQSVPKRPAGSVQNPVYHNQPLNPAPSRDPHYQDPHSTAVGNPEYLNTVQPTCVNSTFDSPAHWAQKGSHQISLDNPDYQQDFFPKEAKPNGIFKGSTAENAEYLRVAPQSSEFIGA
GI50 [1] [µM],IC50 [2] [µM],Structure (SMILES)
0.5 to 5,< 0.05,"CC(C)Nc1cc(Nc2ccnc(-c3cnn(S(=O)(=O)C4CC4)c3)n2)ncc1C(=O)N1C[C@H](CS(C)(=O)=O)[C@H]1C [Example 71, (6-((2-(1-(cyclopropylsulfonyl)-1H-pyrazol-4-yl)pyrimidin-4-yl)amino)-4-(isopropylamino)pyri-din-3-yl)((2R,3S)-2-methyl-3-((methylsulfonyl)meth-yl)azetidin-1-yl)methanone]"
< 0.5,< 0.05,"CC(C)Nc1cc(Nc2ccnc(-c3cnn(S(=O)(=O)C4CC4)c3)n2)ncc1C(=O)NCC#N [Example 72, N-(cyanomethyl)-6-((2-(1-(cyclopropylsulfonyl)-1H-pyrazol-4-yl)pyrimidin-4-yl)amino)-4-(isoporpylamino)nico-tinamide]"
0.5 to 5,< 0.05,"CC(C)Nc1cc(Nc2ccnc(-c3cnn(S(=O)(=O)C4CC4)c3)n2)ncc1C(=O)NCCS(=O)(=O)N(C)C [Example 73, 6-((2-(1-(cyclopropylsulfonyl)-1H-pyrazol-4-yl)pyrimidin-4-yl)amino)-N-(2-(N,N-dimethylsulfamoyl)eth-yl)-4-(isopropylamino)nico-tinamide]"
0.5 to 5,< 0.05,"CC(C)Nc1cc(Nc2ccnc(-c3cnn(S(=O)(=O)C4CC4)c3)n2)ncc1C(=O)NCCS(=O)(=O)C(C)C [Example 74, 6-((2-(1-(cyclopropylsulfonyl)-1H-pyrazol-4-yl)pyrimidin-4-yl)amino)-4-(isopropylamino)-N-(2-(isopropylsulfonyl)eth-yl)nicotinamide]"
0.5 to 5,< 0.05,"CC(C)Nc1cc(Nc2ccnc(-c3cnn(S(=O)(=O)C4CC4)c3)n2)ncc1C(=O)NC[C@@H]1CCCN1 [Example 76, (S)-6-((2-(1-(cyclopropylsulfonyl)-1H-pyrazol-4-yl)pyrimidin-4-yl)amino)-4-(isopropylamino)-N-(pyrrolidin-2-ylmethyl)nicotinamide]"
0.5 to 5,< 0.05,"CC(C)Nc1cc(Nc2ccnc(-c3cnn(S(=O)(=O)C4CC4)c3)n2)ncc1C(=O)NCC(F)(F)F [Example 78, 6-((2-(1-(cyclopropylsulfonyl)-1H-pyrazol-4-yl)pyrimidin-4-yl)amino)-4-(isopropylamino)-N-(2,2,2-trifluoroethyl)nicotin-amide]"
0.5 to 5,0.05 to 0.5,"CC(C)Nc1cc(Nc2ccnc(-c3cnn(S(=O)(=O)C4CC4)c3)n2)ncc1C(=O)N[C@@H](C(C)C)C(F)(F)F [Example 79, (S)-6-((2-(1-(cyclopropylsulfonyl)-1H-pyrazol-4-yl)pyrimidin-4-yl)amino)-4-(isopropylamino)-N-(1,1,1-trifluoro-3-methylbutan-2-yl)nicotinamide]"
< 0.5,< 0.05,"C[C@H]1CCOc2c(cnn2C)-c2nccc(n2)Nc2cc(c(C(=O)NCC#N)cn2)N1 [Example 80, (S)-N-(cyanomethyl)-1^1,6-dimethyl-1^1H-9-oxa-3,5-diaza-2(2,4)-pyrimidina-4(2,4)-pyridina-1(4,5)-pyrazolacyclo-nonaphane-4^5-carboxamide]"
< 0.5,< 0.05,"CC(C)Nc1cc(Nc2ccnc(-c3cnn(S(=O)(=O)C4CC4)c3)n2)ncc1C(=O)NCCCC(F)(F)F [Example 81, 6-((2-(1-(cyclopropylsulfonyl)-1H-pyrazol-4-yl)pyrimidin-4-yl)amino)-4-(isopropylamino)-N-(4,4,4-trifluorobutyl)nicotin-amide]"
< 0.5,< 0.05,"CC(C)Nc1cc(Nc2ccnc(-c3cnn(S(=O)(=O)C4CC4)c3)n2)ncc1C(=O)NCCC(F)(F)F [Example 82, 6-((2-(1-(cyclopropylsulfonyl)-1H-pyrazol-4-yl)pyrimidin-4-yl)amino)-4-(isopropylamino)-N-(3,3,3-trifluoropropyl)nico-tinamide]"
< 0.5,< 0.05,"CC(C)Nc1cc(Nc2ccnc(-c3cnn(S(=O)(=O)C4CC4)c3)n2)ncc1C(=O)NCCN1CCOCC1 [Example 83, 6-((2-(1-(cyclopropylsulfonyl)-1H-pyrazol-4-yl)pyrimidin-4-yl)amino)-4-(isopropylamino)-N-(2-morpholinoethyl)nico-tinamide]"
< 0.5,< 0.05,"C[C@H]1CCOc2c(cnn2C)-c2nccc(n2)Nc2cc(c(C(=O)NCC3CCCC3)cn2)N1 [Example 86, (S)-N-(cyclopentylmethyl)-1^1,6-dimethyl-1^1H-9-oxa-3,5-diaza-2(2,4)-pyrimidina-4(2,4)-pyridina-1(4,5)-pyrazolacyclo-nonaphane-4^5-carboxamide]"
< 0.5,0.05 to 0.5,"CC(C)Nc1cc(Nc2ccnc(-c3cnn(S(=O)(=O)C4CC4)c3)n2)ncc1C(=O)NC1CC(F)(F)C1 [Example 99, 6-((2-(1-(cyclopropylsulfonyl)-1H-pyrazol-4-yL)pyrimidin-4-yl)amino)-N-(3,3-difluorocyclobutyl)-4-(isopropylamino)nico-tinamide]"
< 0.5,< 0.05,"C[C@H]1CCOc2c(cnn2C)-c2nccc(n2)Nc2cc(c(C(=O)Nc3cccc(N4CCN(C)CC4)c3)cn2)N1 [Example 100, (S)-1^1,6-dimethyl-N-(3-(4-methylpiperazin-1-yl)phenyl)-1^1H-9-oxa-3,5-diaza-2(2,4)-pyrimidina-4(2,4)-pyridina-1(4.5)-pyrazolacyclo-nonaphane-4^5-carboxamide]"
< 0.5,< 0.05,"COC(=O)c1cnc2cc1N[C@@H](C)CCOc1c(cnn1C)-c1nccc(n1)N2 [Example 102, methyl(S)-1^1,6-dimethyl-1^1H-9-oxa-3,5-diaza-2(2,4)-pyrimidina-4(2,4)-pyridina-1(4,5)-pyrazolacyclo-nonaphane-4^5-carboxylate]"
0.5 to 5,< 0.05,"C[C@H]1CCOc2c(cnn2C)-c2nccc(n2)Nc2cc(c(C(=O)N3CC(CS(C)(=O)=O)C3)cn2)N1 [Example 105, (S)-(1^1,6-dimethyl-1^1H-9-oxa-3,5-diaza-2(2,4)-pyrimidina-4(2,4)-pyridina-1(4,5)-pyrazolacyclo-nonaphane-4^5-yl)(3-((methylsulfonyl)meth-yl)azetidin-1-yl)methanone]"
0.5 to 5,< 0.05,"C[C@H]1CCOc2c(cnn2C)-c2nccc(n2)Nc2cc(c(C(=O)NCCS(C)(=O)=O)cn2)N1 [Example 110, (S)-1^1,6-dimethyl-N-(2-(methylsulfonyl)ethyl)-1^1H-9-oxa-3,5-diaza-2(2,4)-pyrimidina-4(2,4)-pyridina-1(4,5)-pyrazolacyclo-nonaphane-4^5-carboxamide]"
< 0.5,< 0.05,"C[C@H]1CCOc2c(cnn2C)-c2cc(ccn2)Nc2ncc(C(=O)NCCC(F)(F)F)c(n2)N1 [Example 115, (S)-1^1,6-dimethyl-N-(3,3,3-trifluoropropyl)-1^1H-9-oxa-3,5-diaza-4(2,4)-pyrimidina-2(2,4)-pyridina-1(4,5)-pyrazolacyclo-nonaphane-4^5-carboxamide]"
< 0.5,< 0.05,"CC1CCCOc2c(cnn2C)-c2nccc(n2)Nc2cc(c(C(=O)NCCCC(F)(F)F)cn2)N1 (centres unmarked) [Example 116, 1^1,6-dimethyl-N-(4,4,4-trifluorobutyl)-1^1H-10-oxa-3,5-diaza-2(2,4)-pyrimidina-4(2,4)-pyridina-1(4,5)-pyrazolacyclo-decaphane-4^5-carboxamide]"

# — US20250345329A1, “HETEROARYL DERIVATIVE COMPOUND AND USES THEREOF” (VORONOI, INC., priority 2022, published 2025)
